For orientation: inhibition means the drop in the measured response relative to a control, in per cent. A higher inhibition goes with a strong effect.

What all share (type): functional
Holding throughout (details): Oryctolagus cuniculus

The subject of assay [1] is Platelet. The experiment in a line: Inhibition of collagen-induced rabbit platelet aggregation at 20 ug/ml.
Assay [2] deals with Platelet. The experiment in a line: Inhibition of collagen-induced rabbit platelet aggregation at 50 ug/ml.
Assay [3] concerns Platelet. Description: Inhibition of thrombin-induced rabbit platelet aggregation at 100 ug/ml.
For assay [4], the system named is Platelet. The experiment in a line: Inhibition of collagen-induced rabbit platelet aggregation at 100 ug/ml.
Assay [5] concerns Platelet. Description: Inhibition of platelet-activating factor-induced rabbit platelet aggregation at 100 ug/ml.
For assay [6], the system named is Platelet. The experiment in a line: Inhibition of arachidonic acid-induced rabbit platelet aggregation at 100 ug/ml.
Assay [7] relates to Platelet. The experiment in a line: Inhibition of arachidonic acid-induced rabbit platelet aggregation at 50 ug/ml.
Assay [8] concerns Platelet. The experiment in a line: Inhibition of arachidonic acid-induced rabbit platelet aggregation at 10 ug/ml.
The subject of assay [9] is Platelet. Description: Inhibition of arachidonic acid-induced rabbit platelet aggregation at 20 ug/ml.
The subject of assay [10] is Platelet. Description: Inhibition of collagen-induced rabbit platelet aggregation at 10 ug/ml.

`COc1c(O)cc2c3c(cc4ccccc4c13)NC(=O)C2=O` [NORARISTOLODIONE] came in with an inhibition at 20 µg/mL with Platelet [1] of 84.7%. The same compound displayed an inhibition at 50 µg/mL in the assay on Platelet [2] of 72%. The inhibition at 100 µg/mL in the assay on Platelet [3] is 88.7%; in the assay on Platelet [4], 40.6%; in the assay with Platelet [5], 82.5%; with Platelet [6], 65.8%.
As to `COc1c(OC)c(OC)c2c3c(cc4ccccc42)NC(=O)c13` [PIPEROLACTAM C], the inhibition at 50 µg/mL was determined as 89.4% with Platelet [7] and 82% in the assay with Platelet [2]. In addition, the inhibition at 100 µg/mL with Platelet [3] turned out to be 83.7%; in the assay on Platelet [4], 0%; in the assay with Platelet [5], 6.1%; in the assay with Platelet [6] it was 7.8%.
For `COc1c(O)cc2c3c(cc4ccc(O)cc4c13)NC2=O` [ARISTOLACTAM AIIIA], the inhibition at 100 µg/mL worked out at 90.6% with Platelet [3], 39.6% with Platelet [4], 80.7% with Platelet [5] and 56.9% in the assay with Platelet [6].
With `COc1c(O)c(OC)c2c3c(cc4ccccc42)NC(=O)c13` [ARISTOLACTAM F II], the inhibition at 10 µg/mL with Platelet [8] was determined as 85.4%; in the assay on Platelet [10], 81.7%. For the same compound, the inhibition at 50 µg/mL was 16.5% in the assay with Platelet [7] and 14.5% with Platelet [2]. Besides, the values for the inhibition at 20 µg/mL in the assay on Platelet [9] and in the assay with Platelet [1] were 52.5% and 81.7%, respectively. Also, the inhibition at 100 µg/mL in the assay on Platelet [3] was 83.9%; in the assay on Platelet [4], 9.7%; in the assay on Platelet [5], 6.7%; in the assay with Platelet [6], 8.5%.
In the case of `COc1c(O)cc2c3c(cc4ccccc4c13)NC2=O` [ARISTOLACTAM AII], the inhibition at 100 µg/mL turned out to be 90% in the assay on Platelet [3], 82.5% in the assay with Platelet [4], 78.3% in the assay on Platelet [5] and 86.3% in the assay on Platelet [6].
Regarding `COc1cc2c3c(cc4ccccc4c3c1O)NC2=O` [PIPEROLACTAM A], the inhibition at 50 µg/mL in the assay on Platelet [7] is 14.7%; with Platelet [2] it was 22.2%. The results for the inhibition at 20 µg/mL in the assay with Platelet [9] and in the assay with Platelet [1] were 83.5% and 84.2%, respectively. The inhibition at 100 µg/mL was 84.3% in the assay with Platelet [3], 0% in the assay on Platelet [4], 84.1% with Platelet [5] and 0% with Platelet [6].
With `COc1cc2c3c(cc4ccc(O)cc4c3c1OC)NC2=O` [GONIOTHALACTAM], the inhibition at 10 µg/mL in the assay with Platelet [8] was 85.9%; in the assay with Platelet [10], 83%. For the same compound, the inhibition at 50 µg/mL in the assay on Platelet [7] was determined as 50.4%; in the assay on Platelet [2], 17.3%. The inhibition at 20 µg/mL with Platelet [9] stood at 81.6%; in the assay with Platelet [1], 75.9%. Further, the inhibition at 100 µg/mL in the assay with Platelet [3] was 89.8%; in the assay with Platelet [4], 10.5%; in the assay on Platelet [5] it was 67.3%; with Platelet [6] it was 13.6%.
Consider `CC(=O)Oc1ccccc1C(=O)O` [ASPIRIN], for which the inhibition at 100 µg/mL in the assay on Platelet [4] amounted to 87.8%; in the assay with Platelet [5], 90.4%; in the assay with Platelet [6], 0%.
With `COc1c(OC)c(OC)c2c3c(cc4ccc(O)cc42)NC(=O)c13` [STIGMALACTAM], the inhibition at 50 µg/mL worked out at 18.8% in the assay with Platelet [7] and 30.8% with Platelet [2]. Further, the results for the inhibition at 20 µg/mL in the assay with Platelet [9] and in the assay with Platelet [1] were 46.4% and 72.9%, respectively. In addition, the inhibition at 100 µg/mL with Platelet [3] is 91.9%; in the assay on Platelet [4] it was 10.1%; with Platelet [5], 70.8%; in the assay on Platelet [6] it was 14.2%.
On to `COc1cc2c3c(cc4c(O)cccc4c3c1OC)NC2=O` [VELUTINAM], for which the figures for the inhibition at 50 µg/mL in the assay on Platelet [7] and with Platelet [2] were 77.5% and 65.4%, respectively. For the same compound, the inhibition at 100 µg/mL came to 92.1% in the assay on Platelet [3], 18.4% in the assay with Platelet [4], 87.3% with Platelet [5] and 37.5% in the assay on Platelet [6].
In the case of `COc1cccc2c1c(OC)c1c3c(cc(O)c(OC)c32)C(=O)N1` [ENTEROCARPAM I], the inhibition at 10 µg/mL with Platelet [8] is 83.5%; in the assay with Platelet [10], 83.7%. In addition, the values for the inhibition at 50 µg/mL in the assay with Platelet [7] and with Platelet [2] were 13.5% and 25.8%, respectively. The inhibition at 20 µg/mL with Platelet [9] is 46.4%; in the assay on Platelet [1] it was 72.9%. Besides, the inhibition at 100 µg/mL worked out at 86.5% in the assay with Platelet [3], 43% with Platelet [4], 70.8% with Platelet [5] and 2.2% in the assay on Platelet [6].
On to `COc1ccc2cc3c4c(cc(OC)c(OC)c4c2c1)C(=O)N3` [ARISTOLACTAM BIII], for which the inhibition at 50 µg/mL in the assay with Platelet [7] was determined as 86.6%; in the assay with Platelet [2] it was 59.1%. The inhibition at 100 µg/mL was found to be 89.3% in the assay on Platelet [3], 0% with Platelet [4], 60.6% in the assay on Platelet [5] and 71.9% in the assay on Platelet [6].

The values above are taken from ChEMBL document CHEMBL1155573, “Aristolactams and dioxoaporphines from Fissistigma balansae and Fissistigma oldhamii” (2000).
